The target in this test is Monocarboxylate transporter 1 (Homo sapiens) (UniProt P53985). Briefly: TP_TRANSPORTER: uptake in Xenopus laevis oocytes. The note with it: Oocyte.
Monocarboxylate transporter 1 (Homo sapiens), sequence (P53985 whole entry, looked up): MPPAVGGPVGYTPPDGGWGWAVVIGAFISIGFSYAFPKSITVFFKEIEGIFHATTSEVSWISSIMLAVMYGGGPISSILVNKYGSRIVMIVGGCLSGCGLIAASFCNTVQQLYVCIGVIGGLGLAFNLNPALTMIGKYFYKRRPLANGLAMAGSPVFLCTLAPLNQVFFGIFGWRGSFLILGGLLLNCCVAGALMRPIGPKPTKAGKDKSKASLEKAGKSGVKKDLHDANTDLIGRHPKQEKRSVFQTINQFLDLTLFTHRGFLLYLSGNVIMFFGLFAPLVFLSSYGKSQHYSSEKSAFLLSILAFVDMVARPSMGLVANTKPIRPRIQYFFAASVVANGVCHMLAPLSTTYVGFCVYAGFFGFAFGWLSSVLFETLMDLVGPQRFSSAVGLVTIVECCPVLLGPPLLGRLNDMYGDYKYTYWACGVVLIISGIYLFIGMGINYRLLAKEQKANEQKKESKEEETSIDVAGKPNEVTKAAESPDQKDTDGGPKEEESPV

Consider `CC(C)[C@H]1CC[C@H](C(=O)N[C@H](Cc2ccccc2)C(=O)O)CC1`, for which the Activity result was “is not a substrate [-]”.

These data come from ChEMBL document CHEMBL2074490, “Transport and uptake of nateglinide in Caco-2 cells and its inhibitory effect on human monocarboxylate transporter MCT1” (Br J Pharmacol, 2002).
